Columns and labels:
Assay in all cases: Kinase profiling
Type in all cases: biochemical
BRK = BRK (Homo sapiens, UniProt Q13882)
BTK = BTK (Homo sapiens, UniProt Q06187)
EPH-B2 = EPH-B2 (Homo sapiens, UniProt P29323)
EPH-B4 = EPH-B4 (Homo sapiens, UniProt P54760)
PHK = PHK (Homo sapiens, UniProt Q16816)
PKD1 = PKD1 (Homo sapiens, UniProt Q15139)
Sequence of PKD1 (Q15139 whole entry): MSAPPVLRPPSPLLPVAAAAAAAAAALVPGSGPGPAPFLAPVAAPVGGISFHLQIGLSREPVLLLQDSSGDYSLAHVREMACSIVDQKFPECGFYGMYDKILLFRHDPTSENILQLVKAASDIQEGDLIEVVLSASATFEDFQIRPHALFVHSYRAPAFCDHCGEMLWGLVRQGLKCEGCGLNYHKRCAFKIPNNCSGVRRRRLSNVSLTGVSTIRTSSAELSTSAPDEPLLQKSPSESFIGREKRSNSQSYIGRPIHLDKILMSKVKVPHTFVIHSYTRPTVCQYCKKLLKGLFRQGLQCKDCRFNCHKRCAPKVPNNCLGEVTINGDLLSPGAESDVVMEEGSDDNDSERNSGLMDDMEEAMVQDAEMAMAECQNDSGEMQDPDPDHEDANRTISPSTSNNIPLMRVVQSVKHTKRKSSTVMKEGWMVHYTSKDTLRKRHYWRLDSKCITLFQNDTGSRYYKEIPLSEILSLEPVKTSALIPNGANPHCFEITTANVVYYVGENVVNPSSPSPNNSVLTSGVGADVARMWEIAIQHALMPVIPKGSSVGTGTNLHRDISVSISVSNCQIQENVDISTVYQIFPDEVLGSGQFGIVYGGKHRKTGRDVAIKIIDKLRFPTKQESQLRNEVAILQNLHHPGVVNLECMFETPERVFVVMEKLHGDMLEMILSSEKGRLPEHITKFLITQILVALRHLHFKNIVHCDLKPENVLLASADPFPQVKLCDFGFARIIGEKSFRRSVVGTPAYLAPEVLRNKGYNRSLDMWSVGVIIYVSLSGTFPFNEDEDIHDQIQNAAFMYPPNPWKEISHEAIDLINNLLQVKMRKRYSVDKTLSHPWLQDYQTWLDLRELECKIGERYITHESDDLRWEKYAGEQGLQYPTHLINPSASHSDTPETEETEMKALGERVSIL

Sequence of EPH-B4 (P54760 16-987): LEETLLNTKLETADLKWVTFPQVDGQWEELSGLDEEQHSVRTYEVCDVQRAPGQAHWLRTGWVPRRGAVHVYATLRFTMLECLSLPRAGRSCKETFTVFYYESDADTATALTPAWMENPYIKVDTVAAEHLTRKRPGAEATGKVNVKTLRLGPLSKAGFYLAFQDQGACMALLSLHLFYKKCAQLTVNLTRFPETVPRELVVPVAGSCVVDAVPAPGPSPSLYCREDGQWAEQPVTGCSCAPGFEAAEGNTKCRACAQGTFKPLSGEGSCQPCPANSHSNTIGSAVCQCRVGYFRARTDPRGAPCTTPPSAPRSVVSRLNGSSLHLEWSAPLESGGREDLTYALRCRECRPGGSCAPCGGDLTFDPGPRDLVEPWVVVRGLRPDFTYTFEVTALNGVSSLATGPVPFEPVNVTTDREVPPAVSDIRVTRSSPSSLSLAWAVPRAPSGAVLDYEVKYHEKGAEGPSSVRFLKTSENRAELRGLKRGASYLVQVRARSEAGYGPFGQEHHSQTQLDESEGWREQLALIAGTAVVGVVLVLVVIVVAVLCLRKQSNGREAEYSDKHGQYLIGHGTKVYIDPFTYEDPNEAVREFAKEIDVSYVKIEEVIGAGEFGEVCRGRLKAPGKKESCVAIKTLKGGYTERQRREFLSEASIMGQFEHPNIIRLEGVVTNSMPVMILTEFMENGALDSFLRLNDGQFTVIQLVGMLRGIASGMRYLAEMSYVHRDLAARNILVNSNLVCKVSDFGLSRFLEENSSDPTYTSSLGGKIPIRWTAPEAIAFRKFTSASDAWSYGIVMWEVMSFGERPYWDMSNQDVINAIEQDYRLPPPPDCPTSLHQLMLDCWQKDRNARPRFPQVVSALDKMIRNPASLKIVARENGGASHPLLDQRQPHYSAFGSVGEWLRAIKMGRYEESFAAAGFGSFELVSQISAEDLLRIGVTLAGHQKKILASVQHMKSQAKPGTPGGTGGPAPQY
Sequence of PHK (Q16816 whole entry): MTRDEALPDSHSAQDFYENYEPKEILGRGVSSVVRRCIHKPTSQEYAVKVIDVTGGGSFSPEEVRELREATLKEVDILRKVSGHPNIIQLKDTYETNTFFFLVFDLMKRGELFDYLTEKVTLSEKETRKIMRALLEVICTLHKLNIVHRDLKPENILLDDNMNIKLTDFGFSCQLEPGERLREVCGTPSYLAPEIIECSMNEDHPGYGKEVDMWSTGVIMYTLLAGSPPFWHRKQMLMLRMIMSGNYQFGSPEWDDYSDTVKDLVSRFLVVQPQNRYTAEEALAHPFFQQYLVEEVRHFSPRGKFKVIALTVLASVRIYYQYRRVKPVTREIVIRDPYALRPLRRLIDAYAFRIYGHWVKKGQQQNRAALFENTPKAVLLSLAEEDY
Sequence of EPH-B2 (P29323 19-1055): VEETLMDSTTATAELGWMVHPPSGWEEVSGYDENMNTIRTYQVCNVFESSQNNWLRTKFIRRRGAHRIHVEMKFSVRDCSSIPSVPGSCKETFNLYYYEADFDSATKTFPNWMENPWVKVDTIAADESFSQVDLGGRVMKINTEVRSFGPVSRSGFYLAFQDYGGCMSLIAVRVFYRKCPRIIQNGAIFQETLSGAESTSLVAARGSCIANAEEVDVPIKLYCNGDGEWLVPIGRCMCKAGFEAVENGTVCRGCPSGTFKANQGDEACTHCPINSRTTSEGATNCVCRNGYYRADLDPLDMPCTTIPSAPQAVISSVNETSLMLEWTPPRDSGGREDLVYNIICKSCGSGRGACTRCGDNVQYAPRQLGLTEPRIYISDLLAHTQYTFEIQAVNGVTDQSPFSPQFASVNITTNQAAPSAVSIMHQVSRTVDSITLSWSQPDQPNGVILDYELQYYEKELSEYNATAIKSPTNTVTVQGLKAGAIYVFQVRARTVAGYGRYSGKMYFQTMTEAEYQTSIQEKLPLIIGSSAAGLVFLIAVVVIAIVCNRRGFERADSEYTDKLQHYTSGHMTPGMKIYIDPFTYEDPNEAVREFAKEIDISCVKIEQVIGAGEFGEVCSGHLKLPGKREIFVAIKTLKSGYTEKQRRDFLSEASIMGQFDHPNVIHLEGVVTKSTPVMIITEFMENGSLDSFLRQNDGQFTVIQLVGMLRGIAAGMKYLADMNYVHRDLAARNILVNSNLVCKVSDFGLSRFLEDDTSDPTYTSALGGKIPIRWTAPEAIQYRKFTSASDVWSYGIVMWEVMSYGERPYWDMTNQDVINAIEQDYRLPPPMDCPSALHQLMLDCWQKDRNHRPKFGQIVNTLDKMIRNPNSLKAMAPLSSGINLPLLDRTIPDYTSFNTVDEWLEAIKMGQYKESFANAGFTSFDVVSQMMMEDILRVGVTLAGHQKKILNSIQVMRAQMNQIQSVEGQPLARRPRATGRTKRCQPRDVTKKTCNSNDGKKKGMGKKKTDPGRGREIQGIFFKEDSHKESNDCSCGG
Sequence of BRK (Q13882 whole entry): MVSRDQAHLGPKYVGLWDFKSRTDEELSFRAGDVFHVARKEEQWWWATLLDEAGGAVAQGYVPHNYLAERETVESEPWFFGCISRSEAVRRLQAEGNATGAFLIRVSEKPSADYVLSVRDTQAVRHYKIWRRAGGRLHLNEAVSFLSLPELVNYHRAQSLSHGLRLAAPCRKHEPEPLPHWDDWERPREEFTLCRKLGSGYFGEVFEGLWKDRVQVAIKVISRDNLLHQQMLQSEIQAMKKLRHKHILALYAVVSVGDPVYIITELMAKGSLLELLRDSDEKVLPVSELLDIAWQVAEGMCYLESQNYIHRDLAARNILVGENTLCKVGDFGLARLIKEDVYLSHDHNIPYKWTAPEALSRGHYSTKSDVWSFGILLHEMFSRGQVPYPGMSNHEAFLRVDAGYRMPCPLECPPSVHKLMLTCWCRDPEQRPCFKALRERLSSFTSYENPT
Sequence of BTK (Q06187 whole entry): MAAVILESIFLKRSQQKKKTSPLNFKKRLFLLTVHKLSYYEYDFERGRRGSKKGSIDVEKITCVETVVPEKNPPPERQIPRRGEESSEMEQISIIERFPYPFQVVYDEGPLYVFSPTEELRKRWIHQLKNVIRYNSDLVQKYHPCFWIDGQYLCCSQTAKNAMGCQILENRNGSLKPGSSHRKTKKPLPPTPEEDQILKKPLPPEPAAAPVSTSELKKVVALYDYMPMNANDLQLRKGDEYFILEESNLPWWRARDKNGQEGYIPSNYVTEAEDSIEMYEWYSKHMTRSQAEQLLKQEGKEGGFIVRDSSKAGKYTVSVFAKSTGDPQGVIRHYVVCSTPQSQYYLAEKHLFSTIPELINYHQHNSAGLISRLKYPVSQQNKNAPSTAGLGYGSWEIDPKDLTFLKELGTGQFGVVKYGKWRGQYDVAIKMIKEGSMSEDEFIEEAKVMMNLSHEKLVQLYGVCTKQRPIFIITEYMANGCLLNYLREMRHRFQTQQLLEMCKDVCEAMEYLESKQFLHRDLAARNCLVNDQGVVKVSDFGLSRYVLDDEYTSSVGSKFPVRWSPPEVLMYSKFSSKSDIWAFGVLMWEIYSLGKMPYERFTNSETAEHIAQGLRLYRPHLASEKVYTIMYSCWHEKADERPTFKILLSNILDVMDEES

With `COc1cc(Nc2c(C#N)cnc3cc(OCCCN4CCN(C)CC4)c(OC)cc23)c(Cl)cc1Cl` [Bosutinib, bosutinib] the remaining activity at 0.1 µM (BRK; 0.1 µM) was 88 ± 11%, the remaining activity at 1 µM (BRK; 1 µM) was 48% and the remaining activity at 0.1 µM (BTK; 0.1 µM) was 1%. It also gave a remaining activity at 1 µM (BTK; 1 µM) of 1%, a remaining activity at 0.1 µM (EPH-B2; 0.1 µM) of 1 ± 1% and a remaining activity at 1 µM (EPH-B2; 1 µM) of 0%. It also gave a remaining activity at 0.1 µM (EPH-B4; 0.1 µM) of 10%, a remaining activity at 1 µM (EPH-B4; 1 µM) of 2% and a remaining activity at 0.1 µM (PHK; 0.1 µM) of 55%. The remaining activity at 1 µM (PHK; 1 µM) was 12% and the remaining activity at 0.1 µM (PKD1) was 89 ± 2%.

Reference: PMC4286194 (Biochemical Journal, 2015)
